From patent US20240270737A1, “SMALL MOLECULAR INHIBITORS OF STING SIGNALING COMPOSITIONS AND METHODS OF USE” (STINGINN INC., priority 2021, published 2024)

Key:
[1] = test system: IRF3 translocation induced by dsDNA (ISD); test: IRF3 translocation inhibition, confocal/immunofluorescence after ISD transfection; format: cell-based; settings: Homo sapiens, % means blockage of IRF3 translocation induced by dsDNA (ISD)
Description: Inhibition of IFNβ expression was measured by Luciferase induction at 24 hours after transfection of ISD. […]. […] FIG. 3H qPCR of IFNβ 1 performed in MEFs treated same as in FIG. 3A. FIG. 3I qPCR of CCL5 performed in MEFs treated same as in FIG. 3A.
Immunofluorescence Microscopy: Cells were cultured and treated in their appropriate media on Lab-Tek II chamber slides. Cell were fixed with 4% paraformaldehyde for 15 minutes in at 37° C. and permeabilized with 0.05% Triton X-100 for 5 minutes at room temperature. Immunostaining was performed with rabbit-anti-STING polyclonal, rabbit-anti-IRF3 (Santa Cruz Biotechnology) or rabbit-anti-p65 (Cell Signaling) followed by fluorescence conjugated secondary antibodies (FITC-goat-anti-rabbit) (Invitrogen).

[2] = test system: pIRF3, pSTING; test: Western blot of pIRF3, pSTING, pTBK1 after ISD transfection in hTERT cells; format: cell-based, human; settings: Homo sapiens
Description: FIG. 1C are photographs showing Western blot analysis of STING, phospho-TBK1 (pTBK1) and phospho-IRF3 (pIRF3) performed at 6 hours after ISD transfection with/without W1 treatment same as FIG. 1A, Mock is shown (210), ISD treatment only (220) was used as a control, according to an embodiment of the invention;
Immunoblot analysis: Equal amounts of proteins were resolved on sodium dodecyl sulfate (SDS)-Polyacrylamide gels and then transferred to polyvinylidene fluoride (PVDF) membranes (Millipore). After blocking with 5% Blocking Reagent, membranes were incubated with various primary antibodies (and appropriate secondary antibodies). The image was resolved using an enhanced chemiluminescence system ECL (Thermo Scientific) and detected by autoradiography (Kodak). Antibodies: rabbit polyclonal antibody against STING was developed in our laboratory as described previously in Ishikawa et al, 2008; other antibodies were obtained from following sources: β-actin (Sigma Aldrich), p-IRF3 (Cell Signaling), IRF3 (Santa Cruz Biotechnology), p-p65 (Cell Signaling), p65 (Cell Signaling), p-TBK1 (Cell Signaling), TBK1 (Abcam), cGAS (Cell Signaling).

[3] = test system: IFNβ expression (type I IFNβ promoter driving luciferase); test: IFNβ promoter luciferase assay in hTERT-pIFNβ-Glu cells transfected with ISD; format: cell-based, human; settings: Homo sapiens
Description: Inhibition of IFNβ expression was measured by Luciferase induction at 24 hours after transfection of ISD, DMSO is shown (230), ISD treatment only (220) was used as a control, according to an embodiment of the invention;
Inhibition of IFNβ expression was measured by Luciferase induction at 24 hours after transfection of ISD, Mock is shown (210), ISD treatment only (220) was used as a control, according to an embodiment of the invention;
Identification of small molecule inhibitors of STING. In the presence of cytosolic DNA species, STING becomes activated to drive the transcription of cytokines such as type I IFN. Compounds binding to STING via TSA were subsequently examined for their ability to prevent cytosolic DNA species from activating the type I interferon (IFN) promoter, using a live cell assay. This assay comprised immortalized human fibroblasts (hTERT) that were stably transfected with the type I IFN promoter driving luciferase as well as the CMV promoter driving SEAP (hTERT-pIFNβ-Glu). The live cell assay has previously been disclosed in PCT/US2019/025380 entitled IFN-Beta Reporter System for Immortalized Primary Cells inventor Glen N. Barber, which was filed Apr. 2, 2018 and published as WO2019195285, and which is herein incorporated by reference in its entirety and for all purposes. The ability of the small molecules to prevent activation of the type I IFN promoter and the transcription of luciferase, but not SEAP in response to cytosolic DNA species was assessed. The activation of STING, typically by CDNs, in turn activates the transcription factors NF-κB and IRF3, both of which are required to induce the transcriptional stimulation of the Type I IFN promoter, but not the CMV promoter as IRF3 and NF-kB transcription factor binding sites are not contained in the CMV promoter. The assay identified the small molecule Compound W1 in the first screen (HTS), where the level of luciferase was not able to activate the type I IFN promoter or induce the expression of luciferase (see Table I and Table II).
Inhibition of IFNβ expression was measured by Luciferase induction at 24 hours after transfection of ISD. ISD only treatment was used as control.
Inhibition of IFNβ expression was measured by Luciferase induction at 24 hours after transfection of ISD, Mock is shown (210), ISD treatment only (220) was used as a control.
Luciferase assay: hTERT-BJ1 Telomerase Fibroblasts stably expressing the luciferase gene under the control of the interferon-beta promoter and SEAP gene under control of the CMV promoter) (hTERT-pIFNβ-Glu) were generated by the Barber laboratory. Luciferase assay was performed using Secrete-Pair Dual Luminescence Assay Kit from GeneCopoeia following the manufacturer's protocol.

Row | Structure (SMILES) | inhibition at 25 µM [1] | inhibition at 10 µM [2] | inhibition at 5 µM [3]
1 | COc1ccc(-c2nc(CN3CCN(c4cc(C)nc(N(C)C)n4)CC3)cs2)cc1OC [Compound W3, 4-(4-{[2-(3,4-dimethoxyphenyl)-1,3-thiazol-4-yl]methyl}piperazin-1-yl)-N,N,6-trimethylpyrimidin-2-amine] | 40 to 50% | 40 to 50% | -37%
2 | COc1ccc(-c2nc(CN3CCN(c4nc(C)nc(N(C)C)n4)CC3)cs2)cc1OC [Compound W4, 4-(4-{[2-(3,4-dimethoxyphenyl)-1,3-thiazol-4-yl]methyl}piperazin-1-yl)-N,N,6-trimethyl-1,3,5-triazin-2-amine] |  | < 10% | 4%
3 | COc1ccc(-c2nc(CN3CCN(c4nc(C)cc(C(C)C)n4)CC3)cs2)cc1OC [Compound W5, 2-(4-{[2-(3,4-dimethoxyphenyl)-1,3-thiazol-4-yl]methyl}piperazin-1-yl)-4-methyl-6-(propan-2-yl)pyrimidine] |  | < 10% | 18%
4 | Cc1cc(N2CCN(Cc3csc(-c4ccc(C(F)(F)F)cc4)n3)CC2)nc(N(C)C)n1 [Compound W11, N,N,4-trimethyl-6-[4-({2-[4-(trifluoromethyl)phenyl]-1,3-thiazol-4-yl}methyl)piperazin-1-yl]pyrimidin-2-amine] | 90 to 100% | 90 to 100% | 38%
5 | COc1ccc(-c2nc(CN3CCN(c4cc(C)nc(N(C)C)n4)CC3)cs2)c(OC)c1 [Compound W13, 4-(4-{[2-(2,4-dimethoxyphenyl)-1,3-thiazol-4-yl]methyl}piperazin-1-yl)-N,N,6-trimethylpyrimidin-2-amine] | 40 to 50% | 90 to 100% | 30%
6 | Cc1cc(N2CCN(Cc3csc(-c4ccc(Cl)cc4)n3)CC2)nc(N(C)C)n1 [Compound W14, 4-(4-{[2-(4-chlorophenyl)-1,3-thiazol-4-yl]methyl}piperazin-1-yl)-N,N,6-trimethylpyrimidin-2-amine] | ~70% | 90 to 100% | 42%
7 | CCc1ccc(-c2nc(CN3CCN(c4cc(C)nc(N(C)C)n4)CC3)cs2)cc1 [Compound W15] | 90 to 100% | 90 to 100% | 69%
8 | Cc1cc(N2CCN(Cc3cnc(-c4ccccc4)s3)CC2)nc(N(C)C)n1 [Compound W19, N,N,4-trimethyl-6-{4-[(2-phenyl-1,3-thiazol-5-yl)methyl]piperazin-1-yl}pyrimidin-2-amine] |  | < 10% | 76%
9 | Cc1cc(N2CCN(Cc3ncc(-c4ccccc4)s3)CC2)nc(N(C)C)n1 [Compound W20, N,N,4-trimethyl-6-{4-[(5-phenyl-1,3-thiazol-2-yl)methyl]piperazin-1-yl}pyrimidin-2-amine] | 40 to 50% | < 10% | 79%
10 | COc1ccc(-c2nc(CN3CCN(c4cc(C(C)C)nc(N(C)C)n4)CC3)cs2)cc1OC [Compound W26, 4-(4-{[2-(3,4-dimethoxyphenyl)-1,3-thiazol-4-yl]methyl}piperazin-1-yl)-N,N-dimethyl-6-(propan-2-yl)pyrimidin-2-amine] |  |  | -120%
11 | COc1cc(N2CCN(Cc3csc(-c4ccc(OC)c(OC)c4)n3)CC2)nc(N(C)C)n1 [Compound W27, 4-(4-{[2-(3,4-dimethoxyphenyl)-1,3-thiazol-4-yl]methyl}piperazin-1-yl)-6-methoxy-N,N-dimethylpyrimidin-2-amine] |  |  | -64%
12 | COc1ccc(-c2nc(CN3CCN(c4cc(C(F)(F)F)nc(N(C)C)n4)CC3)cs2)cc1OC [Compound W28, 4-(4-{[2-(3,4-dimethoxyphenyl)-1,3-thiazol-4-yl]methyl}piperazin-1-yl)-N,N-dimethyl-6-(trifluoromethyl)pyrimidin-2-amine] |  |  | -89%
13 | Cc1cc(N2CCN(Cc3csc(-c4ccc(C(C)C)cc4)n3)CC2)nc(N(C)C)n1 [Compound W29, N.N.4-trimethyl-6-[4-({2-[4-(propan-2-yl)phenyl]-1.3-thiazol-4-yl}methyl)piperazin-1-yl]pyrimidin-2-amine] |  |  | 50%
14 | Cc1cc(N2CCN(Cc3csc(-c4ccc(C5CC5)cc4)n3)CC2)nc(N(C)C)n1 [Compound W30, 4-(4-{[2-(4-cyclopropylphenyl)-1.3-thiazol-4-yl]methyl}piperazin-1-yl)-N.N.6-trimethylpyrimidin-2-amine] |  |  | 50%
15 | COc1cc(C(F)(F)F)ccc1-c1nc(CN2CCN(c3cc(C)nc(N(C)C)n3)CC2)cs1 [Compound W31, 4-[4-({2-[2-methoxy-4-(trifluoromethyl)phenyl]-1.3-thiazol-4-yl}methyl)piperazin-1-yl]-N.N.6-trimethylpyrimidin-2-amine] |  |  | 60%
16 | Cc1cc(N2CCN(Cc3csc(-c4ccc(C(C)(F)F)cc4)n3)CC2)nc(N(C)C)n1 [Compound W32, 4-[4-({2-[4-(1.1-difluoroethyl)phenyl]-1.3-thiazol-4-yl}methyl)piperazin-1-yl]-N.N.6-trimethylpyrimidin-2-amine] |  |  | 70%
17 | Cc1cc(N2CCN(Cc3csc(-c4ccc(CC(F)(F)F)cc4)n3)CC2)nc(N(C)C)n1 [Compound W33, N.N.4-trimethyl-6-[4-({2-[4-(2.2.2-trifluoroethyl)phenyl]-1.3-thiazol-4-yl}methyl)piperazin-1-yl]pyrimidin-2-amine] |  |  | 65%
18 | Cc1cc(N2CCN(Cc3csc(-c4ccc(C(F)(F)Cl)cc4)n3)CC2)nc(N(C)C)n1 [Compound W34, 4-[4-({2-[4-(chlorodifluoromethyl)phenyl]-1.3-thiazol-4-yl}methyl)piperazin-1-yl]-N.N.6-trimethylpyrimidin-2-amine] |  |  | 50%
19 | Cc1cc(N2CCN(Cc3csc(-c4ccc5c(c4)OCC5)n3)CC2)nc(N(C)C)n1 [Compound W35] |  |  | 0%
